According to PMC9682524, “Investigation of the Interaction between Human Serum Albumin and Branched Short-Chain Perfluoroalkyl Compounds” (Chemical Research in Toxicology, 2022):
“And” between values parts separate entries of the source, which are not always exact repeats. Equal entries are not always repeated. Where two headings read alike, the source gives them in different places.

Assays:
[1] = molecular target: T1, human serum albumin (hSA) (Homo sapiens, UniProt P02768); test: Isothermal titration calorimetry (ITC) of PFAS binding to defatted hSA
T1 construct: purchased Albumin Bioscience (Huntsville, AL, USA)
Procedure: (§1) ITC experiments were performed using a Microcal PEAQ-ITC instrument (Malvern Panalytical, Malvern, UK). Both dhSA (110 μM) and ligands (HPFO-DA, C6O4, PFHxA, Ibu, and War, 4 mM solutions) were dissolved in 50 mM NaPi, 100 mM NaCl, pH 7.4. Only in the case of War, 2.5% v/v DMSO was added to the buffer to improve its solubility. All working solutions were properly degassed. Titrations of dhSA with ligands were carried out at different temperatures (298 and 310 K). In each experiment, an initial 0.4 μL injection (excluded from subsequent data analysis) was followed by 25 independent injections of 1.5 μL with a stirring rate of 750 rpm to ensure rapid mixing. A 120 s interval between injections was applied to guarantee the equilibrium at each titration point. Blank experiments (ligands against buffer) were carried out for each ligand and subtracted to corresponding titrations in order to screen dilution heat contributions. Competition experiments were conducted by adding saturating concentrations of albumin-binding drugs (either 250 μM Ibu or 200 μM War) to dhSA in the measure cell and titrating each PFAS (4 mM) with the aforementioned instrumental parameters. Data were analyzed using the MicroCal PEAQ-ITC Evaluation software (Malvern Panalytical, Malvern, UK). Integrated heat signals were fitted to “one set of sites” (C6O4, PFHxA), “two sets of sites” (PFOA), or “sequential” (HPFO-DA) binding models. Values for the binding affinity constant (KA = 1/KD) and enthalpy change (ΔH), together with the stoichiometry of each PFAS-dhSA reaction, were obtained from curve fitting. Free energy and the entropy change (ΔS) were calculated from the Gibbs free energy (ΔG) relationships: ΔG = ΔH – TΔS = −RT ln(KA).

[2] = molecular target: T1, human serum albumin (hSA); test: Competitive ITC with hSA saturated with ibuprofen or warfarin; format: binding; settings: for titration profile to hSA saturated with War: 200 μM War; for titration profile to hSA saturated with War / titration profile to Ibu-saturated hSA: PFAS 4 mM titrant; for titration profile to Ibu-saturated hSA: 250 μM Ibu; for preferably occupied hSA binding sites: concluded from stoichiometry and competition with Ibu
Procedure: as §1
These include ibuprofen (Ibu) and warfarin (War), two well-characterized molecules known to share the same fatty acid-binding sites (FA4 and FA6 for Ibu, FA7 for War) with long-chain PFASs (Figure 2a).[45] Again, the short-chain perfluoroalkyl compound PFHxA was included as the control. […] The results are consistent with those previously reported that identified the ibuprofen-binding pocket as a preferable cavity to lodge polyfluoroalkyl compounds.[45]

[3] = molecular target: T1, human serum albumin (hSA); test: Crystal structure of hSA in complex with HPFO-DA and Myr (PDB 7Z57); format: binding; settings: ternary complex hSA-HPFO-DA-Myr, 1:20:5 molar ratio
Procedure: Crystallization trials of dhSA in complex with HPFO-DA, C6O4 and sodium myristate (Myr) were carried out at 285 K in an MRC maxi 48-well crystallization plate (Hampton Research, Aliso Viejo, CA, USA) using the sitting-drop vapor-diffusion method and the Morpheus MD1–46 protein crystallization screen kit (Molecular Dimensions Ltd., Catcliffe, UK). Droplets of 1.6 μL volume (0.8 μL of protein complex and 0.8 μL of reservoir solution) were set up using an Oryx 8 crystallization robot (Douglas Instruments Ltd., Catcliffe, UK) and equilibrated against 120 μL reservoir solution. In all the cases, best crystals were obtained by streak- or micro-seeding and left for 5–7 days. Crystals of dhSA (1 mM) incubated with a 20-fold molar excess of HPFO-DA (20 mM) and a fivefold molar excess of Myr (5 mM) were obtained using the following precipitant agents: 50 mM bicine, 50 mM Trizma base, 30 mM sodium fluoride, 30 mM sodium bromide, 30 mM sodium iodide, 12.5% v/v MPD, 12.5% w/v PEG 1000, and 12.5% w/v PEG 3350 pH 8.5. […]
The structure was solved by molecular replacement with software PHASER[49] using as a template the model 7AAI.[45] […] Intramolecular and intermolecular hydrogen bond interactions were analyzed by PROFUNC,[53] […]

[4] = environmentally exposed human populations; cited from earlier work
[5] = 310 K, sequential binding, first binding event
[6] = 310 K, sequential binding, second binding event
[7] = 298 K, two sets of sites, high-affinity sites
[8] = 298 K, two sets of sites, low-affinity sites
[9] = 310 K, two sets of sites, high-affinity sites
[10] = 310 K, two sets of sites, low-affinity sites

T1 sequence (P02768 25-609): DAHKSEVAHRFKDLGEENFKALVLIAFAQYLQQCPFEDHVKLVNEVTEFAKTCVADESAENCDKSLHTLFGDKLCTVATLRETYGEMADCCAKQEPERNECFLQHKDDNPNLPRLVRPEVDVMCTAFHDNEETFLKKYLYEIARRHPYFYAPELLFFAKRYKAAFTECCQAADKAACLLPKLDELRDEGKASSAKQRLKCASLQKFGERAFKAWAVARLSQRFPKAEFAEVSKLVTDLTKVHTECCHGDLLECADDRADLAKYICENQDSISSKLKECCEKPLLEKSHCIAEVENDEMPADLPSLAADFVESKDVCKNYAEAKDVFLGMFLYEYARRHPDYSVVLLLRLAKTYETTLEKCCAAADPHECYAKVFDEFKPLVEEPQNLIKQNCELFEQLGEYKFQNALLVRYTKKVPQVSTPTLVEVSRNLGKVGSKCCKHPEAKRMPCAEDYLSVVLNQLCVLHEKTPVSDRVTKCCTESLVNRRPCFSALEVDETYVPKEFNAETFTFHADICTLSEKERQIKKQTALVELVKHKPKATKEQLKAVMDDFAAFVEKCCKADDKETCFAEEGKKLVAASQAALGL

Compound	n (stoichiometry) ([1]; 298 K, one set of sites)	ΔG ([1]; 298 K, one set of sites)	ΔH ([1]; 298 K, one set of sites)	n (stoichiometry) ([1]; 310 K, one set of sites)	ΔG ([1]; 310 K, one set of sites)	ΔH ([1]; 310 K, one set of sites)	–TΔS ([1]; 310 K, one set of sites) [kcal/mol]	Kd ([1]; KD, 298 K, one set of sites) [µM]	Kd ([1]; KD, 310 K, one set of sites) [µM]	titration profile to hSA saturated with War [2]	titration profile to Ibu-saturated hSA [2]	preferably occupied hSA binding sites [2]	number of distinct binding sites occupied in crystal structure [3]	average half-life for serum elimination [4]	other results
O=C(O)C(F)(F)OC1(F)OC(F)(F)OC1(F)OC(F)(F)F (stereo not drawn) [C6O4, perfluoro ([5-methoxy-1,3-dioxolan-4-yl]oxy) acetic acid]	1.6 ± 0.2	–32.10 kJ/mol	–21.4 ± 1.4 kJ/mol	1.5 ± 0.3	–31.70 kJ/mol	–25.8 ± 4.2 kJ/mol	0.406	2.4 ± 0.1	5.4 ± 2.1	comparable to that of hSA in the absence of competitive drug	nearly saturated flat curve	FA4 and/or FA6 sites	–	–	–TΔS ([1]; 298 K, one set of sites): –10.7 kJ/mol
O=C(O)C(F)(OC(F)(F)C(F)(F)C(F)(F)F)C(F)(F)F (stereo not drawn) [HPFO-DA, 2,3,3,3-tetrafluoro-2-(heptafluoropropoxy) propanoic acid]	–	–	–	–	–	–	–	–	–	comparable to that of hSA in the absence of competitive drug	nearly saturated flat curve	FA4 and/or FA6 sites	two	–	fold lower binding affinity (KD) compared to PFOA high-affinity sites ([1]; 298 K): ~47 fold; ΔH2 ([1]; 298 K, sequential binding, second binding event): 8.08 kcal/mol and 8.08 ± 0.454 kcal/mol; ΔH1 [1, 5]: –23.2 ± 3.4 kJ/mol; –TΔS1 [1, 5]: –6.54 kJ/mol; ΔH2 [1, 6]: 6.74 ± 0.669 kcal/mol; –TΔS2 [1, 6]: –55.4 kJ/mol; Kd ([1]; KD1, 298 K, sequential binding, first binding event): 19 ± 1.3 µM; Kd ([1]; KD1, 310 K, sequential binding, first binding event): 9.9 ± 2.3 µM; Kd ([1]; KD2, 310 K, sequential binding, second binding event): 27 ± 8.1 µM; Kd ([1]; human, pH 7.4, KD2, 298 K, sequential binding, second binding event): > 80 µM; Kd ([1]; read-out: KD2, 298 K, sequential binding, second binding event): 84.2 ± 14.6 µM
CCCCCCCCCCCCCC(=O)O [Myr, sodium myristate]	–	–	–	–	–	–	–	–	–	–	–	–	four	–	–
O=C(O)C(F)(F)C(F)(F)C(F)(F)C(F)(F)C(F)(F)F [PFHxA, Perfluorohexanoic acid]	1.02 ± 0.05	–30.60 kJ/mol	–34.1 ± 7.40 kJ/mol	1.03 ± 0.05	–31.70 kJ/mol	–39.2 ± 2.00 kJ/mol	1.84	4.5 ± 2.1	5.9 ± 0.7	comparable to that of hSA in the absence of competitive drug	nearly saturated flat curve	FA4 and/or FA6 sites	–	–	–
O=C(O)C(F)(F)C(F)(F)C(F)(F)C(F)(F)C(F)(F)C(F)(F)C(F)(F)F [PFOA, perfluorooctanoic acid]	–	–	–	–	–	–	–	–	–	–	–	–	–	1–5 years	n (stoichiometry) [1, 7]: 0.89 ± 0.30; ΔG [1, 7]: –36.10 kJ/mol; –TΔS [1, 7]: –17.70 kJ/mol; ΔG [1, 8]: –26.60 kJ/mol; –TΔS [1, 8]: –28.2 kJ/mol; n (stoichiometry) [1, 9]: 0.95 ± 0.2; ΔG [1, 9]: –38.10 kJ/mol; ΔH [1, 9]: –16.5 ± 1.9 kJ/mol; –TΔS [1, 9]: –21.6 kJ/mol; n (stoichiometry) [1, 10]: 9.5 ± 0.20; ΔG [1, 10]: –29.10 kJ/mol; ΔH [1, 10]: –2.26 ± 0.75 kJ/mol; –TΔS [1, 10]: –31.30 kJ/mol; Kd ([1]; KD, 298 K, two sets of sites, low-affinity sites): 29.7 ± 1.7 µM; Kd ([1]; KD, 310 K, two sets of sites, low-affinity sites): 46 ± 2 µM; Kd ([1]; human, pH 7.4, KD, 298 K, two sets of sites, high-affinity sites): 0.4 ± 0.01 µM; Kd ([1]; human, pH 7.4, KD, 310 K, two sets of sites, high-affinity sites): 39.3 ± 0.4 µM
O=S(=O)(O)C(F)(F)C(F)(F)C(F)(F)C(F)(F)C(F)(F)C(F)(F)C(F)(F)C(F)(F)F [PFOS, perfluorooctanesulfonic acid]	–	–	–	–	–	–	–	–	–	–	–	–	–	1–5 years	–
